Each structure is given as a SMILES string.

Assay [1] deals with T1, serotonine transporter (SERT) receptor (Homo sapiens, UniProt P31645).
T1 construct: expressed in transfected cells; host or cells: CHO cells
Nature of the assay: Binding assay SERT (h), [3H]imipramine, CHO cells. The following applies: read-out: SERT [%]. The method in brief:
(§1)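 Radioligand displacement with compounds at 1×10^−6 M, detected by scintillation counting. Specific binding taken as total minus non-specific binding measured with excess unlabelled ligand.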

Assay [2] has as its system adrenergic α1 receptor. Nature of the assay: Binding assay α1 (non-selective), [3H]prazosin, rat cerebral cortex. The settings on record: percent inhibition of control specific binding; compounds tested at 1×10^−6 M. The method in brief: as §1
Assay [3] has as its target dopaminergic D3 receptor (Homo sapiens, UniProt P35462). Nature of the assay: Binding assay D3 (h), [3H]methyl-spiperone, CHO cells. Also on record: expressed in transfected cells; host or cells: CHO cells. The following applies: read-out: D3 [%]. Summed up:
as §1

Assay [4] deals with serotoninergic 5-HT6 receptor (Homo sapiens, UniProt P50406). Kind of assay: Binding assay 5-HT6 (h), [3H]LSD, CHO cells. The arrangement: expressed in transfected cells; host or cells: CHO cells. The following applies: read-out: 5-HT6. The method in brief: as §1
serotoninergic 5-HT6 receptor, sequence (P50406 whole entry): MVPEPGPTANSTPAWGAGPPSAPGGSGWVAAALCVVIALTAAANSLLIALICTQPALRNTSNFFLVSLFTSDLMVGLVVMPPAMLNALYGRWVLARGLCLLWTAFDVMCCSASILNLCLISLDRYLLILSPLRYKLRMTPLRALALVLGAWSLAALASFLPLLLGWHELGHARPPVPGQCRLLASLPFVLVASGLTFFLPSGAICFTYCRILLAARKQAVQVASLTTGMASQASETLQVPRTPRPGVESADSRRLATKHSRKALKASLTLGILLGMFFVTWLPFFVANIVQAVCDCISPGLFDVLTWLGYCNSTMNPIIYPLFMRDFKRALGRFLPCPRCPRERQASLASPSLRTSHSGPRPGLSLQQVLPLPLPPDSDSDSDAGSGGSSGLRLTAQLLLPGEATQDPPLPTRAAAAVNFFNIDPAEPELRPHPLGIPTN
Assay [5] deals with serotoninergic 5-HT7 receptor (Homo sapiens, UniProt P34969). Nature of the assay: Binding assay 5-HT7 (h), [3H]LSD, CHO cells. The arrangement: expressed in transfected cells; host or cells: CHO cells. The settings on record: read-out: 5-HT7. The method in brief:
as §1

For assay [6], the target named is dopaminergic D2 receptor (Homo sapiens, UniProt P14416). Kind of assay: Binding assay D2S (h), [3H]methyl-spiperone, HEK-293 cells. The arrangement: expressed in transfected cells; host or cells: HEK-293 cells. The following applies: read-out: D2 [%]. The method in brief: as §1
dopaminergic D2 receptor, sequence (P14416 1-414 isoform P14416-2): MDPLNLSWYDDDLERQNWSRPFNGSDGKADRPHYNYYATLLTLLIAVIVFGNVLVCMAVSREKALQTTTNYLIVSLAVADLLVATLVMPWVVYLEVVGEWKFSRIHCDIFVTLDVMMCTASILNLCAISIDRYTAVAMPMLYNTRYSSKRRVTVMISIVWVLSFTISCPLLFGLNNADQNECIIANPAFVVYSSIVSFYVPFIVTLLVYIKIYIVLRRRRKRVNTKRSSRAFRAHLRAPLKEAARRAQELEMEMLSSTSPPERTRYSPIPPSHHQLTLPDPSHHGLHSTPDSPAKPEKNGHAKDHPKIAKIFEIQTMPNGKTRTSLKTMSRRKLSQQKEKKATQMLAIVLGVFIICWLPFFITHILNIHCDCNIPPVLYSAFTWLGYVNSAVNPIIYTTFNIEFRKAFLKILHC
In assay [7] the target is T2, serotoninergic 5-HT1A receptor (Homo sapiens, UniProt P08908).
T2 sequence (P08908 1-422): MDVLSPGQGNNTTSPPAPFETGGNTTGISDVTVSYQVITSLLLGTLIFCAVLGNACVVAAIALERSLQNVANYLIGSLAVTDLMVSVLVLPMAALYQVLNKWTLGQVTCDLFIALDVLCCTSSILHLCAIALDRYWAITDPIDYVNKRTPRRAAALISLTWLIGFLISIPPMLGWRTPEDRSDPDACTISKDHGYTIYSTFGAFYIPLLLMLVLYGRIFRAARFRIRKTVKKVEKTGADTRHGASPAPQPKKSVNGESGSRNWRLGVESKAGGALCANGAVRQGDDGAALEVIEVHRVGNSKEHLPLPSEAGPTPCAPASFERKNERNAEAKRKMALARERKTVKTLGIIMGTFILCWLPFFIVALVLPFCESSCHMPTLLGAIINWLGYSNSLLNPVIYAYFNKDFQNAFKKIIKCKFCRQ
Nature of the assay: Binding assay 5-HT1A (h), [3H]8-OH-DPAT, HEK-293 cells. Also on record: expressed in transfected cells; host or cells: HEK-293 cells. The settings on record: read-out: 5-HT1A. Summed up:
as §1

Assay [8] concerns the target serotoninergic 5-HT2A receptor (Homo sapiens, UniProt P28223). Kind of assay: Binding assay 5-HT2A (h), [3H]ketanserin, HEK-293 cells. Also on record: expressed in transfected cells; host or cells: HEK-293 cells. The following applies: read-out: 5-HT2A. Summed up:
as §1

serotoninergic 5-HT7 receptor, sequence (P34969 whole entry): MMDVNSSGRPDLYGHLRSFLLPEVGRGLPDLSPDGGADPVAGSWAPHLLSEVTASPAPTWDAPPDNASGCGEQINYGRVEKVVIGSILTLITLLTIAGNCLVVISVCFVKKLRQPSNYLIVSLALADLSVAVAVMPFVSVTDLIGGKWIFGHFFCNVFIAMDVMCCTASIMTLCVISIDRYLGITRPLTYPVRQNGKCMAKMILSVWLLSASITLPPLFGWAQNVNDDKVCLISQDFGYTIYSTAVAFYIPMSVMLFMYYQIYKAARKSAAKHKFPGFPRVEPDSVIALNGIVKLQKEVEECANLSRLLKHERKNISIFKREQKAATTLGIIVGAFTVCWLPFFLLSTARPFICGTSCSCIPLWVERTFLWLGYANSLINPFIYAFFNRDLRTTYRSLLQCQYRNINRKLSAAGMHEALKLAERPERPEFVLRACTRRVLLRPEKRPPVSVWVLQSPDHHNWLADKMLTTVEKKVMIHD
serotoninergic 5-HT2A receptor, sequence (P28223 whole entry): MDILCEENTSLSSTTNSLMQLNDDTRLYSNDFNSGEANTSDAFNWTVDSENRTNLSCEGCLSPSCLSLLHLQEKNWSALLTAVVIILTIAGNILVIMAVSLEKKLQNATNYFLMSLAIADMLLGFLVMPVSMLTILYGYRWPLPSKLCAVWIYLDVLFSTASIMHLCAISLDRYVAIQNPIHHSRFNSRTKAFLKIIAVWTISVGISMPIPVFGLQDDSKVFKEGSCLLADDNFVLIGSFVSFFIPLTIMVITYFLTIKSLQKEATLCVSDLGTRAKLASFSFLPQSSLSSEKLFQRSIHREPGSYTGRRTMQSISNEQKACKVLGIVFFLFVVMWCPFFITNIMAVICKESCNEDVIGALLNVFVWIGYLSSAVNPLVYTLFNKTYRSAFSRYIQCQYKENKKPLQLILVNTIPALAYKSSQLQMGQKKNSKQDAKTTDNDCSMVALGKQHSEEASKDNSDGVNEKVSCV
dopaminergic D3 receptor, sequence (P35462 whole entry): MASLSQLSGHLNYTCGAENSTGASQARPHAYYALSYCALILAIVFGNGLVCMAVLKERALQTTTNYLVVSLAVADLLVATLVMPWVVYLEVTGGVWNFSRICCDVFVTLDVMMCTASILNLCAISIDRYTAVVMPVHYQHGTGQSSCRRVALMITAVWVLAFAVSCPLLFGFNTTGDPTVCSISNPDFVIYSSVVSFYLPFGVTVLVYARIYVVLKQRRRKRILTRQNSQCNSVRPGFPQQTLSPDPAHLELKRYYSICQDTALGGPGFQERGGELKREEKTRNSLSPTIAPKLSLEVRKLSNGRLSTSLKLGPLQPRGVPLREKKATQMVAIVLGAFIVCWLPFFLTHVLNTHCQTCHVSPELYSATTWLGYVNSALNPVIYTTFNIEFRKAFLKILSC
T1 sequence (P31645 whole entry): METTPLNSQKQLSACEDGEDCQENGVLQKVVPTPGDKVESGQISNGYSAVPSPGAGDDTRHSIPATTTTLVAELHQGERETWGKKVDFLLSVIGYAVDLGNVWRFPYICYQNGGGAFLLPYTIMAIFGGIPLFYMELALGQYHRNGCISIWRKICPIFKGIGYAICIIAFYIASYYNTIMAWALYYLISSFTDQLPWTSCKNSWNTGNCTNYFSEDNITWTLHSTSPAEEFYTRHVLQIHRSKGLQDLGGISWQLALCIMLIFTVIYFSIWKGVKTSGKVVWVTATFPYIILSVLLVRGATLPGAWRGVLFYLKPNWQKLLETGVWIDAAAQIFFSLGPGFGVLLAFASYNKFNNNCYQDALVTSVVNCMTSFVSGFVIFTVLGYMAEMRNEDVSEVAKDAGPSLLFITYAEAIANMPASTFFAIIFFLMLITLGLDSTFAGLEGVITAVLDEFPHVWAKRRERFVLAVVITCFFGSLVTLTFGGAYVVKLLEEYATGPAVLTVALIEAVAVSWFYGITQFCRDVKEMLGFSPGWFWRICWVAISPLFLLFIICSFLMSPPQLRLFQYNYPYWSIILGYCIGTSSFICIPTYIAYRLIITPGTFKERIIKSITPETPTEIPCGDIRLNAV

As to `Cc1c(S(=O)(=O)NCCCCN2CCN(c3cccc4[nH]ccc34)CC2)sc2ccc(F)cc12` [Compound 364, 5-Fluoro-N-[4-[4-(1H-indol-4-yl)piperazin-1-yl]butyl]-3-methylbenzothiophene-2-sulphonamide], the inhibition at 1 µM in assay [1] came out at 35%; in assay [3], 100%; in assay [4], 80%; in assay [5], 91%; in assay [6], 100%; in assay [7] it was 92%. In assay [8], the inhibition at 1 µM was 89%. In addition, in assay [2], the “α1 [%]” value is reported as 87%.
In the case of `N#Cc1cccc(S(=O)(=O)NCCCCN2CCN(c3noc4ccccc34)CC2)c1` [Compound 282, N-[4-[4-(1,2-Benzoxazol-3-yl)piperazin-1-yl]butyl]-3-cyanobenzenesulphonamide], the inhibition at 1 µM in assay [1] amounted to 12%; in assay [3] it was 87%; in assay [4] it was 64%; in assay [5] it was 98%; in assay [6] it was 97%; in assay [7], 50%. The inhibition at 1 µM in assay [8] is 78%. The “α1 [%]” value in assay [2] is 102%.
Take `O=S(=O)(NCCCN1CCC(c2noc3cc(F)ccc23)CC1)c1cccc(F)c1` [Compound 108, 3-Fluoro-N-[3-[4-(6-fluoro-1,2-benzoxazol-3-yl)piperidin-1-yl]propyl]benzenesulphonamide]: the inhibition at 1 µM in assay [1] was -9%; in assay [3], 98%; in assay [4] it was 86%; in assay [5] it was 90%; in assay [6] it was 106%; in assay [7] it was 48%. Also, in assay [8], the inhibition at 1 µM was 88%. Further, the “α1 [%]” value in assay [2] came to 100%.
As for `O=S(=O)(NCCCN1CCC(c2noc3cc(F)ccc23)CC1)c1ccc(C(F)(F)F)cc1` [Compound 334, N-[3-[4-(6-Fluoro-1,2-benzoxazol-3-yl)piperidin-1-yl]propyl]-4-(trifluoromethyl)-benzenesulphonamide], the inhibition at 1 µM in assay [1] was found to be 30%; in assay [3] it was 96%; in assay [4], 98%; in assay [5] it was 85%; in assay [6], 75%; in assay [7], 86%. Besides, in assay [8], the inhibition at 1 µM is 90%. For the same compound, in assay [2], the “α1 [%]” value stood at 105%.
Take `Cc1cccc(S(=O)(=O)NCCCCN2CCN(c3cccc4c3OCCO4)CC2)c1` [Compound 395, N-[4-[4-(2,3-Dihydro-1,4-benzodioxin-5-yl)piperazin-1-yl]butyl]-3-methylbenzenesulphonamide]: the inhibition at 1 µM was 69% in assay [1]; 87% in assay [3]; -35% in assay [4]; 83% in assay [5]; 61% in assay [6]; 75% in assay [7]. Further, the inhibition at 1 µM in assay [8] turned out to be 61%. For the same compound, the “α1 [%]” value in assay [2] was found to be 92%.
Consider `O=S(=O)(NCCCN1CCN(c2nsc3ccccc23)CC1)c1cccc(O)c1` [Compound 254, N-[3-[4-(1,2-Benzothiazol-3-yl)piperazin-1-yl]propyl]-3-hydroxybenzenesulphonamide], for which the inhibition at 1 µM in assay [1] came out at 9%; in assay [3], 98%; in assay [4], 76%; in assay [5], 93%; in assay [6] it was 87%; in assay [7], 94%. Besides, in assay [8], the inhibition at 1 µM was found to be 90%. Besides, in assay [2], the “α1 [%]” value stood at 96%.
For `O=S(=O)(NCCCN1CCN(c2nsc3ccccc23)CC1)c1c[nH]c2ncccc12` [Compound 270, N-[3-[4-(1,2-Benzothiazol-3-yl)piperazin-1-yl]propyl]-1H-pyrrolo[2,3-b]pyridine-3-sulphonamide], the inhibition at 1 µM in assay [1] was 12%; in assay [3], 82%; in assay [4], 70%; in assay [5], 82%; in assay [6] it was 74%; in assay [7], 75%. Further, in assay [8], the inhibition at 1 µM came out at 89%. In assay [2], the “α1 [%]” value is 88%.
With `O=S(=O)(NCCCCN1CCN(c2nsc3ccccc23)CC1)c1c[nH]c2ncccc12` [Compound 247, N-[4-[4-(1,2-Benzothiazol-3-yl)piperazin-1-yl]butyl]-1H-pyrrolo[2,3-b]pyridine-3-sulphonamide], the inhibition at 1 µM in assay [1] was determined as 14%; in assay [3], 83%; in assay [4], 93%; in assay [5], 93%; in assay [6] it was 104%; in assay [7], 78%. The inhibition at 1 µM in assay [8] is 88%. Moreover, in assay [2], the “α1 [%]” value came to 98%.
Turning to `O=S(=O)(NCCCN1CCC(c2noc3cc(F)ccc23)CC1)c1cccc(C(F)(F)F)c1` [Compound 335, N-[3-[4-(6-Fluoro-1,2-benzoxazol-3-yl)piperidin-1-yl]propyl]-3-(trifluoromethyl)-benzenesulphonamide], the inhibition at 1 µM in assay [1] is -25%; in assay [3], 93%; in assay [4] it was 93%; in assay [5] it was 88%; in assay [6], 105%; in assay [7], 54%. In addition, the inhibition at 1 µM in assay [8] stood at 97%. Moreover, the “α1 [%]” value in assay [2] is listed as 101%.
Regarding `O=S(=O)(NCCCN1CCC(c2noc3cc(F)ccc23)CC1)c1cccc2scnc12` [Compound 351, N-[3-[4-(6-Fluoro-1,2-benzoxazol-3-yl)piperidin-1-yl]propyl]-1,3-benzothiazole-4-sulphonamide], the inhibition at 1 µM came to 31% in assay [1]; 103% in assay [3]; 89% in assay [4]; 94% in assay [5]; 101% in assay [6]; 71% in assay [7]. Moreover, the inhibition at 1 µM in assay [8] was 103%. The “α1 [%]” value in assay [2] amounted to 97%.
As to `O=S(=O)(NCCCCN1CCN(c2nsc3ccccc23)CC1)c1ccc(C(F)(F)F)cc1` [Compound 234, N-[4-[4-(1,2-Benzothiazol-3-yl)piperazin-1-yl]butyl]-4-(trifluoromethyl)benzenesulphonamide], the inhibition at 1 µM in assay [1] was found to be 32%; in assay [3], 91%; in assay [4], 62%; in assay [5] it was 97%; in assay [6], 85%; in assay [7] it was 95%. Also, the inhibition at 1 µM in assay [8] stood at 92%. Further, the “α1 [%]” value in assay [2] came out at 91%.
As to `O=S(=O)(NCCCCN1CCN(c2nsc3ccccc23)CC1)c1cnc2ccccn12` [Compound 246, N-[4-[4-(1,2-Benzothiazol-3-yl)piperazin-1-yl]butyl]imidazo[1,2-a]pyridine-3-sulphonamide], the inhibition at 1 µM in assay [1] amounted to 31%; in assay [3] it was 86%; in assay [4], 49%; in assay [5] it was 86%; in assay [6] it was 98%; in assay [7], 91%. The inhibition at 1 µM in assay [8] was 88%. Further, the “α1 [%]” value in assay [2] amounted to 99%.
With `O=S(=O)(NCCCCN1CCN(c2cccc3c2OCCO3)CC1)c1ccc2c(c1)OCO2` [Compound 404, N-[4-[4-(2,3-Dihydro-1,4-benzodioxin-5-yl)piperazin-1-yl]butyl]-1,3-benzodioxole-5-sulphonamide], the inhibition at 1 µM in assay [1] was -9%; in assay [3], 92%; in assay [4], 4%; in assay [5], 96%; in assay [6], 60%; in assay [7], 97%. In assay [8], the inhibition at 1 µM is 55%. In addition, the “α1 [%]” value in assay [2] is listed as 93%.
As for `O=S(=O)(NCCCCN1CCN(c2nsc3ccccc23)CC1)c1ccc(OC(F)(F)F)cc1` [Compound 236, N-[4-[4-(1,2-Benzothiazol-3-yl)piperazin-1-yl]butyl]-4-(trifluoromethoxy)benzenesulphonamide], the inhibition at 1 µM in assay [1] was -15%; in assay [3], 85%; in assay [4], 67%; in assay [5] it was 91%; in assay [6] it was 99%; in assay [7], 76%. In addition, the inhibition at 1 µM in assay [8] was 89%. The “α1 [%]” value in assay [2] was 92%.
